Measured values reported in PubChem BioAssay (NCI).
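Growth conditions: 96-well plates. Treatment: test compound, 48 hours, 5 concentrations. Analysis: linear interpolation between bracketing concentrations; unreached endpoints set to highest concentration. TGI is the concentration that stops growth completely.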

How the values were obtained:
Assay in all cases: growth of human tumour cells (NCI), 48 h
SNB-19 CNS = system: SNB-19 CNS
HT29 colon = system: HT29 colon
EKVX NSCLC = system: EKVX NSCLC
SF-268 CNS = system: SF-268 CNS
CAKI-1 renal = system: CAKI-1 renal
HCT-15 colon = system: HCT-15 colon
786-0 renal = system: 786-0 renal
OVCAR-8 ovarian = system: OVCAR-8 ovarian
SW-620 colon = system: SW-620 colon
KM20L2 colon = system: KM20L2 colon
U251 CNS = system: U251 CNS
HL-60(TB) leukemia = system: HL-60(TB) leukemia
SR leukemia = system: SR leukemia
UO-31 renal = system: UO-31 renal
NCI-H226 lung = system: NCI-H226 lung
MALME-3M melanoma = system: MALME-3M melanoma
RPMI-8226 leukemia = system: RPMI-8226 leukemia
RXF 393 renal = system: RXF 393 renal
SK-MEL-28 melanoma = system: SK-MEL-28 melanoma
OVCAR-3 ovarian = system: OVCAR-3 ovarian
TK-10 renal = system: TK-10 renal
M19-MEL melanoma = system: M19-MEL melanoma
NCI-H23 lung = system: NCI-H23 lung
A549 NSCLC = system: A549 NSCLC
SK-MEL-2 melanoma = system: SK-MEL-2 melanoma
DMS 273 small cell lung = system: DMS 273 small cell lung
SNB-75 CNS = system: SNB-75 CNS
ACHN renal = system: ACHN renal
DMS 114 small cell lung = system: DMS 114 small cell lung
HOP-62 NSCLC = system: HOP-62 NSCLC
COLO 205 colon = system: COLO 205 colon
LOX IMVI melanoma = system: LOX IMVI melanoma
NCI-H522 lung = system: NCI-H522 lung
SK-OV-3 ovarian = system: SK-OV-3 ovarian
SNB-78 CNS = system: SNB-78 CNS
DLD-1 colon = system: DLD-1 colon
SF-539 CNS = system: SF-539 CNS
SF-295 CNS = system: SF-295 CNS
LXFL 529 NSCLC = system: LXFL 529 NSCLC
SN12C renal = system: SN12C renal
M14 melanoma = system: M14 melanoma
NCI-H460 lung = system: NCI-H460 lung
SK-MEL-5 melanoma = system: SK-MEL-5 melanoma
UACC-257 melanoma = system: UACC-257 melanoma
HCC-2998 colon = system: HCC-2998 colon
MOLT-4 leukemia = system: MOLT-4 leukemia
CCRF-CEM leukemia = system: CCRF-CEM leukemia
K-562 leukemia = system: K-562 leukemia
HCT-116 colon = system: HCT-116 colon
OVCAR-5 ovarian = system: OVCAR-5 ovarian
UACC-62 melanoma = system: UACC-62 melanoma
OVCAR-4 ovarian = system: OVCAR-4 ovarian
DU-145 prostate = system: DU-145 prostate
HOP-92 NSCLC = system: HOP-92 NSCLC
PC-3 prostate = system: PC-3 prostate
BT-549 breast = system: BT-549 breast
T-47D breast = system: T-47D breast
MDA-N = system: MDA-N
NCI/ADR-RES ovarian = system: NCI/ADR-RES ovarian
KM12 colon = system: KM12 colon
A498 renal = system: A498 renal
MDA-MB-435 = system: MDA-MB-435
HS 578T breast = system: HS 578T breast
IGROV1 ovarian = system: IGROV1 ovarian
MDA-MB-231 breast = system: MDA-MB-231 breast
MCF7 breast = system: MCF7 breast

SMILES: COC(=O)C1=C(C(=O)OC)C2C(C)=CC(C)=CN2C(C#N)=C(SC)S1 (stereo not drawn)
- TGI (SNB-19 CNS): > 100 µM
- TGI (HT29 colon): 44.6 µM
- TGI (EKVX NSCLC): 64.9 µM
- TGI (SF-268 CNS): 56.8 µM
- TGI (CAKI-1 renal): 41.5 µM
- TGI (HCT-15 colon): 44 µM
- TGI (786-0 renal): 73.2 µM
- TGI (OVCAR-8 ovarian): 65.9 µM
- TGI (SW-620 colon): 42.7 µM
- TGI (KM20L2 colon): 86.7 µM
- TGI (U251 CNS): > 100 µM
- TGI (HL-60(TB) leukemia): 42.7 µM
- TGI (SR leukemia): 50.5 µM
- TGI (UO-31 renal): 26.8 µM
- TGI (NCI-H226 lung): 39.9 µM
- TGI (MALME-3M melanoma): 48.3 µM
- TGI (RPMI-8226 leukemia): 64.1 µM
- TGI (RXF 393 renal): 30.6 µM
- TGI (SK-MEL-28 melanoma): 41.8 µM
- TGI (OVCAR-3 ovarian): 72.7 µM
- TGI (TK-10 renal): 69.8 µM
- TGI (M19-MEL melanoma): 33.8 µM
- TGI (NCI-H23 lung): 36.4 µM
- TGI (A549 NSCLC): > 100 µM
- TGI (SK-MEL-2 melanoma): 45.8 µM
- TGI (DMS 273 small cell lung): > 100 µM
- TGI (SNB-75 CNS): > 100 µM
- TGI (ACHN renal): 60.5 µM
- TGI (DMS 114 small cell lung): 54.7 µM
- TGI (HOP-62 NSCLC): > 100 µM
- TGI (COLO 205 colon): 34.4 µM
- TGI (LOX IMVI melanoma): 35.4 µM
- TGI (NCI-H522 lung): 46.7 µM
- TGI (SK-OV-3 ovarian): > 100 µM
- TGI (SNB-78 CNS): > 100 µM
- TGI (DLD-1 colon): 49.2 µM
- TGI (SF-539 CNS): 61.4 µM
- TGI (SF-295 CNS): > 100 µM
- TGI (LXFL 529 NSCLC): 37.6 µM
- TGI (SN12C renal): 52.6 µM
- TGI (M14 melanoma): 35.2 µM
- TGI (NCI-H460 lung): > 100 µM
- TGI (SK-MEL-5 melanoma): 30.7 µM
- TGI (UACC-257 melanoma): 64.3 µM
- TGI (HCC-2998 colon): 94.5 µM
- TGI (MOLT-4 leukemia): 77.3 µM
- TGI (CCRF-CEM leukemia): 56.5 µM
- TGI (K-562 leukemia): 55.3 µM
- TGI (HCT-116 colon): 29.6 µM
- TGI (OVCAR-5 ovarian): 84.7 µM

SMILES: C=CCOC1=C(OCC=C)C(C2COC(C)(C)O2)OC1=O (stereo not drawn)
- TGI (SNB-19 CNS): > 100 µM
- TGI (HT29 colon): > 100 µM
- TGI (UACC-62 melanoma): > 100 µM
- TGI (OVCAR-4 ovarian): > 100 µM
- TGI (EKVX NSCLC): > 100 µM
- TGI (SF-268 CNS): > 100 µM
- TGI (CAKI-1 renal): 34.9 µM
- TGI (HCT-15 colon): > 100 µM
- TGI (786-0 renal): > 100 µM
- TGI (DU-145 prostate): > 100 µM
- TGI (OVCAR-8 ovarian): > 100 µM
- TGI (SW-620 colon): > 100 µM
- TGI (HOP-92 NSCLC): 83.3 µM
- TGI (U251 CNS): > 100 µM
- TGI (HL-60(TB) leukemia): > 100 µM
- TGI (SR leukemia): > 100 µM
- TGI (UO-31 renal): > 100 µM
- TGI (NCI-H226 lung): > 100 µM
- TGI (PC-3 prostate): > 100 µM
- TGI (BT-549 breast): > 100 µM
- TGI (MALME-3M melanoma): > 100 µM
- TGI (RPMI-8226 leukemia): > 100 µM
- TGI (T-47D breast): > 100 µM
- TGI (RXF 393 renal): > 100 µM
- TGI (SK-MEL-28 melanoma): > 100 µM
- TGI (MDA-N): > 100 µM
- TGI (OVCAR-3 ovarian): > 100 µM
- TGI (TK-10 renal): > 100 µM
- TGI (NCI/ADR-RES ovarian): > 100 µM
- TGI (KM12 colon): > 100 µM
- TGI (NCI-H23 lung): > 100 µM
- TGI (A549 NSCLC): > 100 µM
- TGI (SK-MEL-2 melanoma): > 100 µM
- TGI (SNB-75 CNS): > 100 µM
- TGI (A498 renal): > 100 µM
- TGI (ACHN renal): > 100 µM
- TGI (MDA-MB-435): > 100 µM
- TGI (HOP-62 NSCLC): > 100 µM
- TGI (COLO 205 colon): > 100 µM
- TGI (LOX IMVI melanoma): > 100 µM
- TGI (HS 578T breast): > 100 µM
- TGI (NCI-H522 lung): 45.2 µM
- TGI (IGROV1 ovarian): > 100 µM
- TGI (SK-OV-3 ovarian): > 100 µM
- TGI (MDA-MB-231 breast): > 100 µM
- TGI (SF-539 CNS): > 100 µM
- TGI (SF-295 CNS): > 100 µM
- TGI (SN12C renal): > 100 µM
- TGI (M14 melanoma): > 100 µM
- TGI (NCI-H460 lung): > 100 µM
- TGI (SK-MEL-5 melanoma): > 100 µM
- TGI (UACC-257 melanoma): > 100 µM
- TGI (MCF7 breast): > 100 µM
- TGI (HCC-2998 colon): > 100 µM
- TGI (MOLT-4 leukemia): > 100 µM
- TGI (CCRF-CEM leukemia): > 100 µM
- TGI (K-562 leukemia): > 100 µM
- TGI (HCT-116 colon): > 100 µM
- TGI (OVCAR-5 ovarian): > 100 µM

SMILES: CC(=O)Oc1ccc2c(C)cc(=O)oc2c1
- TGI (SNB-19 CNS): > 100 µM
- TGI (HT29 colon): > 100 µM
- TGI (UACC-62 melanoma): > 100 µM
- TGI (OVCAR-4 ovarian): > 100 µM
- TGI (EKVX NSCLC): > 100 µM
- TGI (SF-268 CNS): > 100 µM
- TGI (CAKI-1 renal): > 100 µM
- TGI (HCT-15 colon): > 100 µM
- TGI (786-0 renal): > 100 µM
- TGI (DU-145 prostate): > 100 µM
- TGI (OVCAR-8 ovarian): > 100 µM
- TGI (SW-620 colon): > 100 µM
- TGI (HOP-92 NSCLC): > 100 µM
- TGI (U251 CNS): > 100 µM
- TGI (HL-60(TB) leukemia): > 100 µM
- TGI (SR leukemia): > 100 µM
- TGI (UO-31 renal): > 100 µM
- TGI (NCI-H226 lung): > 100 µM
- TGI (PC-3 prostate): > 100 µM
- TGI (BT-549 breast): > 100 µM
- TGI (MALME-3M melanoma): > 100 µM
- TGI (RPMI-8226 leukemia): > 100 µM
- TGI (T-47D breast): > 100 µM
- TGI (RXF 393 renal): > 100 µM
- TGI (SK-MEL-28 melanoma): > 100 µM
- TGI (MDA-N): > 100 µM
- TGI (OVCAR-3 ovarian): > 100 µM
- TGI (TK-10 renal): > 100 µM
- TGI (NCI/ADR-RES ovarian): > 100 µM
- TGI (KM12 colon): > 100 µM
- TGI (NCI-H23 lung): > 100 µM
- TGI (A549 NSCLC): > 100 µM
- TGI (SK-MEL-2 melanoma): > 100 µM
- TGI (SNB-75 CNS): > 100 µM
- TGI (A498 renal): > 100 µM
- TGI (ACHN renal): > 100 µM
- TGI (MDA-MB-435): > 100 µM
- TGI (HOP-62 NSCLC): > 100 µM
- TGI (COLO 205 colon): > 100 µM
- TGI (LOX IMVI melanoma): > 100 µM
- TGI (HS 578T breast): > 100 µM
- TGI (NCI-H522 lung): > 100 µM
- TGI (IGROV1 ovarian): > 100 µM
- TGI (SK-OV-3 ovarian): > 100 µM
- TGI (MDA-MB-231 breast): > 100 µM
- TGI (SF-539 CNS): > 100 µM
- TGI (SF-295 CNS): > 100 µM
- TGI (SN12C renal): > 100 µM
- TGI (M14 melanoma): > 100 µM
- TGI (NCI-H460 lung): > 100 µM
- TGI (SK-MEL-5 melanoma): > 100 µM
- TGI (UACC-257 melanoma): > 100 µM
- TGI (MCF7 breast): > 100 µM
- TGI (HCC-2998 colon): > 100 µM
- TGI (MOLT-4 leukemia): > 100 µM
- TGI (CCRF-CEM leukemia): > 100 µM
- TGI (K-562 leukemia): > 100 µM
- TGI (HCT-116 colon): > 100 µM
- TGI (OVCAR-5 ovarian): > 100 µM
